{"source": "patent US20130184302A1", "about": "“METHODS FOR TREATING IRRITABLE BOWEL SYNDROME (IBS) AND INFECTIONS” (priority 2011, published 2013)", "type_in_all_cases": "in vivo, human", "key": {"[1]": {"system": "C. difficile infection (CDI)", "experiment": "CDI trial: continuing illnesses"}, "[2]": {"system": "patients with diarrhea-predominant IBS", "experiment": "Tolerability, adverse events, rifaximin 550 mg BID study", "settings": "rifaximin 550 mg BID 14 days"}, "subjects with d-IBS [3]": {"system": "subjects with d-IBS", "experiment": "Adequate relief of IBS symptoms and bloating (weekly yes/no questions), rifaximin BID study in d-IBS", "settings": "aIBS"}, "subjects with d-IBS [4]": {"system": "subjects with d-IBS", "experiment": "Adequate relief of IBS symptoms and bloating (weekly yes/no questions), rifaximin BID study in d-IBS", "settings": "for Percentage of Subjects with Number of Weeks with Adequate Relief of Bloating Symptoms / Percentage of Subjects with Number of Weeks with Adequate Relief of IBS Symptoms: RFX 550 mg BID, ITT; for Adequate Relief of Bloating: Failure / Adequate Relief of IBS symptoms: Failure / Adequate Relief of Bloating: Success / Adequate Relief of IBS symptoms: Success: Female; for Adequate Relief of Bloating: Success / Adequate Relief of IBS symptoms: Success: end of the Treatment Phase", "protocol": "This example relates to a study of rifaximin in subjects with d-IBS. […] There were two measures of efficacy assessed. Subjects were questioned on the relief of overall IBS symptoms and bloating. […] The analyses defined success as a “yes” response to questions regarding adequate relief.\nAll subpopulations in the study responded to therapy. Baseline severity was determined using 7-point Lickert scales during screening for Abdominal Pain/Discomfort and Bloating, and the number, type (normal, hard, loose) and urgency of bowel movements.\nDuration of effect was assessed in a follow-up period. Subjects that responded in the 4 week treatment period were followed for an additional 3 months.\nThe effect of treatment on the percentage of subjects who reported adequate relief of IBS and bloating symptoms for at least two of the final three weeks during the treatment phase (Weeks 1 to 4) is shown in Tables 5-7 and FIGS. 4-6 below.\nThe study assessed the effect over 12 weeks of follow-up on long-term adequate relief. Subjects who had adequate relief by Week 4 and remained symptom-free at Week 5 were followed during the post-treatment phase and shown in FIGS. 1 and 2. Superiority to placebo was maintained during the 12 weeks post-treatment follow-up. Results for IBS symptoms were RFX 550 mg BID 62.3% versus placebo 49.2%, and RFX 550 mg BID 59.3% versus 50.9% for placebo for the symptom of bloating through week 16. In assessing the follow-up data, there was statistical significance (p<0.05) of bloating and IBS symptoms for RFX 550 mg BID versus placebo.\nTwo measures of efficacy were assessed independently. The first was the proportion of subjects who provided a ‘yes’ response to the weekly SGA question: “In the past 7 days, have you had adequate relief of your IBS symptoms? (yes/no)”. The second endpoint was the proportion of subjects who provide a ‘yes’ response to the weekly individual symptom question: “In the past 7 days, have you had adequate relief of your symptom of bloating? (yes/no)”. Durability was based on the proportion of subjects that had adequate relief over the entire treatment phase.\nIt is reported herein that the severity of baseline symptoms of abdominal pain and bloating influenced the response to rifaximin treatment. The co-primary endpoints in this analysis assessed weekly yes/no responses to questions regarding adequate relief of global IBS symptoms and IBS-associated bloating. Severity of baseline IBS symptoms was evaluated as a potential confounder of clinical response and was categorized as mild/moderate or severe based on a mean score of ≦4 vs. >4 (on a 7-point scale) for bloating and abdominal pain.\nThe Weekly yes/no responses to questions regarding adequate relief of global IBS symptoms and IBS-associated bloating were assessed. Clinical response was defined as adequate relief for 2 of the final 3 treatment weeks (wk 2, 3, or 4). Severity of baseline IBS symptoms was evaluated as a potential confounder of clinical response and was categorized as mild/moderate or severe based on a mean score of ≦4 versus >4 (on a 7-point scale (0=not bothersome; 6=very bothersome)) for bloating and abdominal pain."}, "[5]": {"settings": "Rifaximin N = 117, Vancomycin N = 115"}}, "data": [{"smiles": "CO[C@H]1/C=C/O[C@@]2(C)Oc3c(C)c(O)c4c(O)c(c5c(nc6cc(C)ccn65)c4c3C2=O)NC(=O)/C(C)=C\\C=C\\[C@H](C)[C@H](O)[C@@H](C)[C@@H](O)[C@@H](C)[C@H](OC(C)=O)[C@@H]1C", "note": "[Rifaximin, (2S,16Z,18E,20S,21S,22R, 23R,24R,25S,26S,27S,28E)-5,6,21,23,25 Pentahydroxy-27-methoxy-2,4,11,16,20,22,24,26-octamethyl-2,7-(epoxypentadeca-(1,11,13)trienimino) benzofuro (4,5-e) pyrido(1,2,-a) benzimidazole-1,15(2H)-dione,25-acetate]", "values": [{"measurement": "Continuing Illness: No, number of subjects", "setting": "[1]; [5]", "result": 90}, {"measurement": "Continuing Illness: No, percent of subjects", "setting": "[1]; [5]", "result": "(77%)"}, {"measurement": "Continuing Illness: Yes, number of subjects", "setting": "[1]; [5]", "result": 27}, {"measurement": "Continuing Illness: Yes, percent of subjects", "setting": "[1]; [5]", "result": "(23%)"}, {"measurement": "Continuing Illness: Treatment Difference", "setting": "[1]; Rifaximin vs Vancomycin", "result": "−9.2", "unit": "%"}, {"measurement": "Tolerability, incidence of adverse events compared with placebo", "setting": "[2]", "result": "well tolerated"}, {"measurement": "Treatment effect, Bloating", "setting": "subjects with d-IBS [3]", "result": "31.4%*, 31.4%"}, {"measurement": "Percentage of Subjects with Number of Weeks with Adequate Relief of Bloating Symptoms", "setting": "subjects with d-IBS [4]; 0 weeks", "result": 35, "unit": "%"}, {"measurement": "Percentage of Subjects with Number of Weeks with Adequate Relief of IBS Symptoms", "setting": "subjects with d-IBS [4]; 0 weeks", "result": 33, "unit": "%"}, {"measurement": "Percentage of Subjects with Number of Weeks with Adequate Relief of Bloating Symptoms", "setting": "subjects with d-IBS [4]; 1 week", "result": 14, "unit": "%"}, {"measurement": "Percentage of Subjects with Number of Weeks with Adequate Relief of IBS Symptoms", "setting": "subjects with d-IBS [4]; 1 week", "result": 11, "unit": "%"}, {"measurement": "Percentage of Subjects with Number of Weeks with Adequate Relief of Bloating Symptoms", "setting": "subjects with d-IBS [4]; 2 weeks", "result": 15, "unit": "%"}, {"measurement": "Percentage of Subjects with Number of Weeks with Adequate Relief of IBS Symptoms", "setting": "subjects with d-IBS [4]; 2 weeks", "result": 15, "unit": "%"}, {"measurement": "Percentage of Subjects with Number of Weeks with Adequate Relief of Bloating Symptoms", "setting": "subjects with d-IBS [4]; 3 weeks", "result": 20, "unit": "%"}, {"measurement": "Percentage of Subjects with Number of Weeks with Adequate Relief of IBS Symptoms", "setting": "subjects with d-IBS [4]; 3 weeks", "result": 23, "unit": "%"}, {"measurement": "Percentage of Subjects with Number of Weeks with Adequate Relief of Bloating Symptoms", "setting": "subjects with d-IBS [4]; 4 weeks", "result": 14, "unit": "%"}, {"measurement": "Percentage of Subjects with Number of Weeks with Adequate Relief of IBS Symptoms", "setting": "subjects with d-IBS [4]; 4 weeks", "result": 16, "unit": "%"}, {"measurement": "Treatment effect, Bloating", "setting": "subjects with d-IBS [4]; Age <65", "result": 6.8, "unit": "%"}, {"measurement": "Treatment effect, IBS Sx", "setting": "subjects with d-IBS [4]; Age <65", "result": 6.9, "unit": "%"}, {"measurement": "Treatment effect, Bloating", "setting": "subjects with d-IBS [4]; Age ≧65", "result": 3.2, "unit": "%"}, {"measurement": "Treatment effect, IBS Sx", "setting": "subjects with d-IBS [4]; Age ≧65", "result": 19.1, "unit": "%"}, {"measurement": "Treatment effect, Bloating", "setting": "subjects with d-IBS [4]; Diabetes History N", "result": 7.4, "unit": "%"}, {"measurement": "Treatment effect, IBS Sx", "setting": "subjects with d-IBS [4]; Diabetes History N", "result": 9.5, "unit": "%"}, {"measurement": "Treatment effect, Bloating", "setting": "subjects with d-IBS [4]; Diabetes History Y", "result": "−5.6", "unit": "%"}, {"measurement": "Treatment effect, IBS Sx", "setting": "subjects with d-IBS [4]; Diabetes History Y", "result": "−12.7", "unit": "%"}, {"measurement": "Treatment effect, Bloating", "setting": "subjects with d-IBS [4]; Disease Duration 10-20 y", "result": 11.7, "unit": "%"}, {"measurement": "Treatment effect, IBS Sx", "setting": "subjects with d-IBS [4]; Disease Duration 10-20 y", "result": 20.1, "unit": "%"}, {"measurement": "Treatment effect, Bloating", "setting": "subjects with d-IBS [4]; Disease Duration >20 y", "result": 35.1, "unit": "%"}, {"measurement": "Treatment effect, IBS Sx", "setting": "subjects with d-IBS [4]; Disease Duration >20 y", "result": 46.6, "unit": "%"}, {"measurement": "Treatment effect, Bloating", "setting": "subjects with d-IBS [4]; Disease Duration ≦10 y", "result": 2.8, "unit": "%"}, {"measurement": "Treatment effect, IBS Sx", "setting": "subjects with d-IBS [4]; Disease Duration ≦10 y", "result": 1.8, "unit": "%"}, {"measurement": "Adequate Relief of Bloating: Failure", "setting": "subjects with d-IBS [4]; RFX 275 2w", "result": "52 (64.2%)"}, {"measurement": "Adequate Relief of IBS symptoms: Failure", "setting": "subjects with d-IBS [4]; RFX 275 2w", "result": "46 (56.8%)"}, {"measurement": "Adequate Relief of Bloating: Success", "setting": "subjects with d-IBS [4]; RFX 275 2w", "result": "29 (35.8%)"}, {"measurement": "Adequate Relief of IBS symptoms: Success", "setting": "subjects with d-IBS [4]; RFX 275 2w", "result": "35 (43.2%)"}, {"measurement": "Adequate Relief of Bloating: Failure", "setting": "subjects with d-IBS [4]; RFX 550 2w", "result": "74 (54.0%)"}, {"measurement": "Adequate Relief of IBS symptoms: Failure", "setting": "subjects with d-IBS [4]; RFX 550 2w", "result": "66 (48.2%)"}, {"measurement": "Adequate Relief of Bloating: Success", "setting": "subjects with d-IBS [4]; RFX 550 2w", "result": "63 (46.0%)"}, {"measurement": "Adequate Relief of IBS symptoms: Success", "setting": "subjects with d-IBS [4]; RFX 550 2w", "result": "71 (51.8%)"}, {"measurement": "Adequate Relief of Bloating: Failure", "setting": "subjects with d-IBS [4]; RFX 550 4w", "result": "44 (57.9%)"}, {"measurement": "Adequate Relief of IBS symptoms: Failure", "setting": "subjects with d-IBS [4]; RFX 550 4w", "result": "42 (55.3%)"}, {"measurement": "Adequate Relief of Bloating: Success", "setting": "subjects with d-IBS [4]; RFX 550 4w", "result": "32 (42.1%)"}, {"measurement": "Adequate Relief of IBS symptoms: Success", "setting": "subjects with d-IBS [4]; RFX 550 4w", "result": "34 (44.7%)"}, {"measurement": "Adequate Relief of Bloating: Failure", "setting": "subjects with d-IBS [4]; RFX 1100 2w", "result": "45 (61.6%)"}, {"measurement": "Adequate Relief of IBS symptoms: Failure", "setting": "subjects with d-IBS [4]; RFX 1100 2w", "result": "44 (60.3%)"}, {"measurement": "Adequate Relief of Bloating: Success", "setting": "subjects with d-IBS [4]; RFX 1100 2w", "result": "28 (38.4%)"}, {"measurement": "Adequate Relief of IBS symptoms: Success", "setting": "subjects with d-IBS [4]; RFX 1100 2w", "result": "29 (39.7%)"}, {"measurement": "Treatment effect, Bloating", "setting": "subjects with d-IBS [4]; Gender F", "result": 3.9, "unit": "%"}, {"measurement": "Treatment effect, IBS Sx", "setting": "subjects with d-IBS [4]; Gender F", "result": 3.5, "unit": "%"}, {"measurement": "Treatment effect, Bloating", "setting": "subjects with d-IBS [4]; Gender M", "result": 13.6, "unit": "%"}]}]}
